# According to PubChem BioAssay (NCI):
#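 A five-concentration, 48-hour dose response in 96-well plates underlies each endpoint, interpolated linearly between surrounding concentrations. GI50 = concentration required for 50% inhibition of growth. At the TGI there is no net growth.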
# How the values were obtained:
# Assay in all cases: growth of human tumour cells (NCI), 48 h
# SNB-19 CNS = system: SNB-19 CNS
# OVCAR-3 ovarian = system: OVCAR-3 ovarian
# SF-268 CNS = system: SF-268 CNS
# NCI-H522 lung = system: NCI-H522 lung
# EKVX NSCLC = system: EKVX NSCLC
# HCT-116 colon = system: HCT-116 colon
# IGROV1 ovarian = system: IGROV1 ovarian
# SW-620 colon = system: SW-620 colon
# MCF7 breast = system: MCF7 breast
# A498 renal = system: A498 renal
SMILES,TGI (SNB-19 CNS),TGI (OVCAR-3 ovarian),TGI (SF-268 CNS),TGI (NCI-H522 lung),TGI (EKVX NSCLC),TGI (HCT-116 colon),TGI (IGROV1 ovarian),TGI (SW-620 colon),GI50 (SNB-19 CNS),GI50 (OVCAR-3 ovarian),GI50 (SF-268 CNS),GI50 (EKVX NSCLC),GI50 (HCT-116 colon),GI50 (IGROV1 ovarian),GI50 (MCF7 breast),TGI (MCF7 breast),GI50 (NCI-H522 lung),GI50 (A498 renal),TGI (A498 renal),GI50 (SW-620 colon)
O=C1c2ccccc2C(=O)c2[nH]c(Cc3ccc(F)cc3)nc21,51.3 µM,38.2 µM,66.3 µM,34.3 µM,39.8 µM,42.3 µM,26.2 µM,38.3 µM,,,,,,,,,,,,
CCCCCn1c(C)cc(/C=C\c2ccc3cc(C)ccc3[n+]2C)c1C,1.51 µM,0.911 µM,1.41 µM,,2.43 µM,1.09 µM,1.11 µM,,0.123 µM,79.3 nM,0.252 µM,275 nM,0.0343 µM,0.0386 µM,199 nM,1.04 µM,,,,
N.N.O=P([O-])([O-])C1(P(=O)([O-])[O-])CCCCCN1.[Pt+2],> 100 µM,> 100 µM,> 100 µM,> 100 µM,,> 100 µM,> 100 µM,> 100 µM,> 100 µM,> 100000 nM,76.6 µM,,> 100 µM,> 100 µM,,,> 100 µM,> 100 µM,> 100 µM,> 100 µM
CN(C)C(=O)Oc1c(-c2ccccc2)c(=O)n2c3ccccc3n3c(=O)n(C)c(=O)c1c23,> 100 µM,> 100 µM,> 100 µM,,> 100 µM,> 100 µM,> 100 µM,> 100 µM,,,,,,,,,,,> 100 µM,
O=S1Nc2c(Cl)cc(Cl)c(Cl)c2S1 (stereo not given),> 100 µM,> 100 µM,> 100 µM,> 100 µM,> 100 µM,> 100 µM,> 100 µM,21.1 µM,,,,,,,,,,,> 100 µM,
CCN(CC)CCNC(=O)c1cccc2nc3ccccc3nc12,> 100 µM,> 50 µM,36.9 µM,> 100 µM,> 65.4 µM,45.6 µM,> 100 µM,> 47.1 µM,,,,,,,,,,,30.9 µM,
O=C1NCCS(=O)(=O)N2CCC[C@@H]12,> 100 µM,> 100 µM,> 100 µM,> 100 µM,> 100 µM,> 100 µM,> 100 µM,> 100 µM,,,,,,,,,,,> 100 µM,
CCN(Cc1c(Cl)cccc1Cl)c1ccc(CO)c(Cl)c1,26.2 µM,1.07 µM,28.8 µM,24.9 µM,,11.3 µM,,17 µM,13.2 µM,232 nM,15 µM,,< 0.0379 µM,< 0.0253 µM,146 nM,13.4 µM,11.1 µM,< 0.02 µM,0.0465 µM,0.549 µM
C/C=N\N1C(=O)c2ccccc2C1=O,> 100 µM,> 100 µM,> 100 µM,,> 100 µM,> 100 µM,> 100 µM,> 100 µM,,,,,,,,,,,> 100 µM,
NC(=S)NN=C1CSSC1,11.4 µM,10.5 µM,13.8 µM,15.4 µM,,11.8 µM,63.1 µM,> 100 µM,2.46 µM,2540 nM,3.61 µM,,2.78 µM,5 µM,2850 nM,17.6 µM,2.95 µM,1.95 µM,6.03 µM,8.06 µM
Cc1cccc2c(O)cc(=O)oc12,> 100 µM,> 100 µM,> 100 µM,,> 100 µM,> 100 µM,> 100 µM,> 100 µM,,,,,,,,,,,> 100 µM,
CC1(C)CC(N(C(=O)/C=C/c2ccc([N+](=O)[O-])o2)C2CCCCC2)CC(C)(C)N1,26.3 µM,25.2 µM,20.5 µM,21.2 µM,27 µM,12 µM,29.1 µM,6.01 µM,,,,,,,,,,,30.6 µM,
O=C(CC/C(CC(=O)c1ccc(Br)cc1)=N\O)Nc1ccc(Cl)c(Cl)c1,,> 100 µM,> 100 µM,53.5 µM,> 100 µM,> 100 µM,> 100 µM,> 100 µM,,,,,,,,,,,> 100 µM,
Cn1c(=O)c2/c(n(C)c1=O)=N\C=c1\c(=O)n(C)c(=O)n(C)\c1=N\C=2,> 100 µM,> 100 µM,> 100 µM,> 100 µM,> 100 µM,> 100 µM,> 100 µM,> 100 µM,,,,,,,,,,,> 100 µM,
O=C(O)c1cc2ccccc2c2c1C(=O)c1ccccc1-2,> 100 µM,> 100 µM,> 100 µM,> 100 µM,,> 100 µM,> 100 µM,> 100 µM,,,,,,,,> 100 µM,,,,
COC(=O)C(C)NC(=O)c1ccccc1I(OS(=O)(=O)C(F)(F)F)c1ccccc1 (stereo not given),> 65.4 µM,41.8 µM,53.2 µM,64.9 µM,88.9 µM,> 100 µM,> 100 µM,44 µM,26.3 µM,19000 nM,17.6 µM,25600 nM,30 µM,36.4 µM,22300 nM,> 65.5 µM,23.9 µM,,,20.9 µM
CC(=O)[CH-]C(C)=O.CC(=O)[CH-]C(C)=O.CC[O-].CC[O-].[Ti+4],> 100 µM,> 100 µM,> 100 µM,> 100 µM,,,> 100 µM,> 100 µM,> 100 µM,> 100000 nM,> 100 µM,,,> 100 µM,,,> 100 µM,,,> 100 µM
OCCN1CCN(CC/C=C2/c3ccccc3Sc3ccc(Cl)cc32)CC1,34.9 µM,27.9 µM,28.3 µM,30.1 µM,31.3 µM,21.7 µM,28.6 µM,24.6 µM,,,,,,,,,,,28.1 µM,
CC(=O)[O-].O=C([CH-]C(=O)c1ccccc1)c1ccccc1.O=C([CH-]C(=O)c1ccccc1)c1ccccc1.[Sm+3],65.7 µM,13.3 µM,24.5 µM,7.49 µM,16.6 µM,18.2 µM,45.1 µM,23.5 µM,6.44 µM,2620 nM,3.39 µM,2110 nM,5.05 µM,5.92 µM,,,1.43 µM,13.1 µM,37.2 µM,2.71 µM
